Measurements as given in patent publication US20070135338A1, “Human GLP-1 mimetibodies, compositions, methods and uses” (priority 2004, published 2007).
One block for each compound: values may come before it.

Legend:
DPP-IV = molecular target: T1, DPP-IV (Homo sapiens, UniProt P27487); assay: DPP-IV cleavage assay; type: in vitro ADME; details: 1.2 nM, DPP-IV 1 μg/mL, room temperature, 0-40 minutes
T1 construct: purchased R&D Systems
Experimental: DPP-IV cleavage assay. Since GLP-1 is rapidly inactivated by DPP-IV, an in vitro assay was established to quantitate intact (i.e. uncleaved) GLP-1 MMB. Briefly, GLP-1 MMB or peptide (1.2 nM) was incubated at room temperature with DPP-IV (1 μg/mL, R&D Systems). After various times (0, 5, 10, 15, 20, 30, 40 minutes), a DPP-IV inhibitor (100 μM, Linco) was added to quench the reaction. The amount of intact GLP-1 MMB or peptide was measured using the GLP-1 Active ELISA (Linco) and the GLP-1 MMB or peptides for the respective standard curves.

db/db mice = assay: Intraperitoneal glucose tolerance test (IPGTT) in db/db mice; type: in vivo
Experimental: GLP-1 MMB lowers blood glucose in an intraperitoneal glucose tolerance test (IPGTT) in db/db mice. Male db/db mice of approximately 13-15 weeks of age were randomized into treatment groups of six mice based on fasting blood glucose levels. Mice were dosed with either 0.02 mg/kg or 0.1 mg/kg of GLP- I MMB or 0.1 mg/kg of negative control MMB six hours prior to the glucose tolerance test. Five minutes before the glucose tolerance test, a glucose measurement was taken with a hand held glucometer from tail vein blood. Mice were then dosed intraperitoneally with 1 mg/g of D-glucose and blood glucose levels were monitored at 10 min,20 min,30 min, 60 min, 90 min, 120 min, 150 min, and 180 min. […] Additional groups of animals treated in the same manner were sacrificed for measurement of insulin levels at t=10 minutes.

diet induced obese mice = assay: Oral glucose tolerance test in diet induced obese mice; type: in vivo
Experimental: GLP-1 MMB lowers blood glucose following an oral glucose tolerance test (OGTT) in diet induced obese mice. To develop a murine model of diet induced obesity, mice were maintained on a high fat diet for at least 27 weeks. Mice became obese and were determined to be diabetic when fasting blood glucose values exceeded 120 mg/dl. To evaluate the effect of GLP-1 MMB therapy on postprandial blood glucose levels, diet induced obese mice were fasted overnight and dosed subcutaneously with 0.02, 0.2, or 2 mg/kg GLP-1 MMB or vehicle control. Six hours after dosing, mice were given a 1.5 mg/g gastric gavage of glucose. Blood glucose levels were determined prior to MMB dosing, at t =0, 15, 30, 60, 90, 120, 150, and 180 minutes using tail vein blood.

normal dogs = assay: Gastric emptying in normal dogs; type: in vivo, beagle dogs; details: lidamidine 0.63 mg/kg subcutaneously 60 minutes before the meal, GLP-1 MMB 0.1 mg/kg intravenously 15 minutes before the meal
Experimental: GLP-1 MMB delays gastric emptying in normal dogs. A gastric cannula was surgically implanted into female beagle dogs (10-15 kg) under general anesthesia and allowed-to recover for at least 2 weeks. Dogs were fasted for 24 hours after which water was freely available. The gastric cannula was opened and gastric juice and food remnants were removed with 40-50 ml of lukewarm water. Groups of six dogs were dosed subcutaneously with lidamidine, an alpha2 agonist (0.63 mg/kg), 60 minutes before the meal, a positive control for delay of gastric emptying. Dogs dosed with the vehicle control or GLP-1 MMB (0.1 mg/kg) were dosed intravenously in the cephalic vein 15 minutes before the meal. Five minutes before the meal, the gastric cannula was opened to determine the amount of fluid present in stomach for baseline value and fluid was promptly reintroduced. […] Glucose concentrations were evaluated for collected samples and used to determine the absolute amount of glucose remaining in the stomach at each time point. The percentage of glucose retained in the stomach was determined from the starting value and the concentration of glucose at each time point and plotted as a function of time. The time at which 50% of the gastric contents were retained was determined by fitting of the curves to a single exponential.

control HEK293 cells = assay: FACS binding assay, control HEK293 cells; details: flow cytometry
diabetic db/db mice [1] = assay: Oral glucose tolerance test in diabetic db/db mice, single dose; type: in vivo; details: subcutaneous 0.02 to 2 mg/kg, all doses tested, 1.0 mg/g glucose
Experimental: Effects of GLP-1 MMB during an oral glucose tolerance test in diabetic mice. Eight-week old diabetic db/db mice were fasted for 6 hours prior to a subcutaneous injection of the GLP-1 MMB (0.02 to 2 mg/kg). Following dosing, mice were fasted for an additional six hours and a baseline fasting blood glucose was measured. At t=0, mice were given an oral gavage of 1.0 mg/g glucose, and blood glucose was measured at various times.

diabetic mice (db/db) = assay: Insulin staining in islets of diabetic mice (db/db) after a single dose; type: in vivo; details: single subcutaneous dose 1.5 mg/kg, four weeks later
Experimental: Effects of GLP-1 MMB on insulin staining in islets of diabetic mice (db/db) after a single dose. Twelve-week old diabetic mice (db/db) were treated with a single subcutaneous dose of the GLP-1 MMB (1.5 mg/kg), and the pancreata were harvested four weeks later. The pancreata were sectioned and stained for the presence of insulin.

diabetic db/db mice [2] = assay: Fasting blood glucose during chronic dosing to diabetic db/db mice; type: in vivo; details: 1 mg/kg subcutaneously daily for six weeks
Experimental: Effects of GLP-1 MMB on fasting blood glucose during chronic dosing to diabetic mice. Ten-week old diabetic db/db mice were subcutaneously dosed daily with vehicle or GLP-1 MMB (1 mg/kg) for six weeks. Fasting blood glucose was measured twice per week during the course of the study.

[3] = Human serum stability assay; type: in vitro ADME; details: 30 nM, 37° C., GLP-1 Active ELISA
Experimental: Human Serum stability assay. The stability of the GLP-1 MMB in serum was also measured to ensure that other serum proteases were not able to cleave and inactivate the GLP-1 MMB. Briefly, GLP1 peptide or the GLP1 MMB (30 nM) was incubated in human serum at 37° C. After various times, the reactions were quenched with a DPP-IV inhibitor (100 μM, Linco), and the samples were analyzed using the GLP-1 Active ELISA from Linco.

diabetic db/db mice [4] = assay: HbA1c after chronic dosing to diabetic db/db mice; type: in vivo; details: 1 mg/kg daily for six weeks
Experimental: Effects of GLP-1 MMB on reducing HbAlc after chronic dosing to diabetic mice. As in Examples 11 and 12, ten-week old diabetic db/db mice were dosed daily with vehicle or GLP-1 MMB (1 mg/kg) for six weeks. Before and after six-weeks of dosing, whole blood samples were taken and analyzed for percent HbA1c.

[5] = test system: normal cynomolgus monkeys; assay: Oral glucose tolerance test in normal cynomolgus monkeys; type: in vivo; details: single dose 1 mg/kg
Experimental: Effects of GLP-1 MMB on an oral glucose tolerance test in normal cynomolgus monkeys. An oral glucose tolerance test (OGTT) was done in normal cynomolgus monkeys prior to and six days after a single dose of the GLP-1 MMB (1 mg/kg). Briefly, at t=0, monkeys were given an oral gavage of 2.0 mg/g glucose, and blood glucose was measured at various times.

diabetic db/db mice [6] = assay: Oral glucose tolerance test after chronic dosing to diabetic db/db mice; type: in vivo; details: 1 mg/kg daily
Experimental: Effects of GLP-1 MMB on oral glucose tolerance test after chronic dosing to diabetic mice. As in Example 11, ten-week old diabetic db/db mice were dosed daily with vehicle or GLP-1 MMB (1 mg/kg) for six weeks. After 40 days of dosing, the mice were given an oral glucose tolerance test. Briefly, at t=0, mice were given an oral gavage of 1.0 mg/g glucose, and blood glucose was measured at various times.

GLP-1R = molecular target: T2, GLP-1R (Homo sapiens, UniProt P43220); assay: FACS binding assay, HEK293 cells over-expressing the GLP-1R; details: 20 nM, 2 hours at 4° C., flow cytometry
T2 construct: expressed in transfected cells; host or cells: HEK293
Experimental: FACS Binding Assay. The activity of GLP-1 mimetibody was tested in an in vitro FACS binding assay. To determine whether the GLP-1 MMB binds the GLP-1R, HEK293 cells (1×10^6 cells) over-expressing the GLP-1R were incubated with GLP-1 MMB (20 nM) for 2 hours at 4° C. The cells were washed, and a fluorescently labeled secondary […] detection antibody (1 μg/mL goat anti-human IgG, Fc gamma specific) was added for 30 minutes at 4° C. The fluorescence intensity of the cells was monitored via flow cytometry.

RINm cells = assay: Insulin secretion in RINm cells (ELISA); type: cell-based; details: peptides 0-5 nM, mimetibodies 5 or 50 nM
Experimental: GLP-1 MMB causes insulin secretion in RINm cells. To test the effect of GLP-1 MMB in insulin secretion, RINm cells were treated with increasing concentrations of GLP-1 (7-36) peptide (0-5 nM), exendin-4 peptide (0-5 nM), or various GLP-1 mimetibodies (5 or 50 nM) and the amount of insulin secreted was measured via ELISA. All GLP-1 MMBs tested had activities in stimulating insulin secretion in RINm cells (FIG. 6).

[7] = administered subcutaneously; cited from earlier work
[8] = test system: patients with type 2 diabetes; details: type 2 diabetic patients, cited from earlier work

T2 sequence (P43220 24-463, species assumed): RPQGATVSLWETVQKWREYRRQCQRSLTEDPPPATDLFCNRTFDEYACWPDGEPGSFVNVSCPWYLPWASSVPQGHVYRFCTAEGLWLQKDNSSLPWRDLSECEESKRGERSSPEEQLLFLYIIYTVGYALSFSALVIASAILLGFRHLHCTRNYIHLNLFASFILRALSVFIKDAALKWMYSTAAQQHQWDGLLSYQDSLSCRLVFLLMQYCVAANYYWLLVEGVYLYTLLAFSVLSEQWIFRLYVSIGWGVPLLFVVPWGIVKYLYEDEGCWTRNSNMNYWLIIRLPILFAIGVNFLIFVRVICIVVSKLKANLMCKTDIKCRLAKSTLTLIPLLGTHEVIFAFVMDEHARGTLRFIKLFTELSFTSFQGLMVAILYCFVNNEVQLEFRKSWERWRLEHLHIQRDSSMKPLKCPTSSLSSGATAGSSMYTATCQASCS
T1 sequence (P27487 whole entry, species assumed): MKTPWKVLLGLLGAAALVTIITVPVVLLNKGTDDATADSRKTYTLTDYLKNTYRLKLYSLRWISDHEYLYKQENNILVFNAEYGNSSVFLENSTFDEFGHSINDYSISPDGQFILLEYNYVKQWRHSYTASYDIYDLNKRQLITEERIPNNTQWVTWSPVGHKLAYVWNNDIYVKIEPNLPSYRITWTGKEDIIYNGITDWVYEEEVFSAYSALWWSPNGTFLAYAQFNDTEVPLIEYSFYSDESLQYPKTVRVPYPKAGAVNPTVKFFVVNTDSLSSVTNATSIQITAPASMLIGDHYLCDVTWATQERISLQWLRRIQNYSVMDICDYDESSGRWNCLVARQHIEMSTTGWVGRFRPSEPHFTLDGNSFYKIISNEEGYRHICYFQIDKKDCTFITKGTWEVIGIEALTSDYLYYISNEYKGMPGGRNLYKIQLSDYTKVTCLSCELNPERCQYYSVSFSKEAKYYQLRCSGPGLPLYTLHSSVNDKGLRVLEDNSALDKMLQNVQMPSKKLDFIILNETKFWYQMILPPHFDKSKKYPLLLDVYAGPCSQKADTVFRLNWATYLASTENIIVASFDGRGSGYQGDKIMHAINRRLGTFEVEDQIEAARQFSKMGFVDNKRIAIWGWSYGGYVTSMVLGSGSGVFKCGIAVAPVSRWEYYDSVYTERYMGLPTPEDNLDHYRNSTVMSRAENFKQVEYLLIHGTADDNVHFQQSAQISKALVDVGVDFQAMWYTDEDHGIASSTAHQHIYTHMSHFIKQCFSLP

binding to HEK293 cells over-expressing the GLP-1R (GLP-1R): binds
Compound: GLP-1 MMB: GLP-1 mimetibody construct (SEQ ID NO:2): GLP-1 peptide (7-36), flexible linker, J region, IgG1 hinge, CH2 and CH3
resistance to cleavage by DPP-IV relative to the GLP-1 peptide (DPP-IV): significantly more resistant
amount of insulin released at t=10 minutes (db/db mice; 0.02 mg/kg or 0.1 mg/kg): dose dependent increase
blood glucose levels over the full time course of IPGTT (db/db mice; 0.02 mg/kg or 0.1 mg/kg six hours prior, 1 mg/g D-glucose): significant lower
glucose areas under the curve between t=0 and t=180 (diet induced obese mice; all doses): significant lowering
fasting blood glucose values at t=0 and all subsequent time points (diet induced obese mice; subcutaneous 0.02, 0.2, or 2 mg/kg, six hours before 1.5 mg/g glucose): dose dependent decrease
time in which 50% of the gastric contents were emptied (normal dogs): 59.23 ± 14.46 min
binding to control HEK293 cells (control HEK293 cells): does not bind
glucose excursion during an oral glucose tolerance test (diabetic db/db mice [1]): effective in lowering the glucose excursion
insulin staining in pancreata relative to control animals (diabetic mice (db/db)): significantly more insulin staining
difference in fasting blood glucose, control vs treated, by six weeks (diabetic db/db mice [2]): more than 200 mg/dL
fasting blood glucose by six weeks (diabetic db/db mice [2]): 221 mg/dL
stability in human serum [3]: stable in human serum for 24 hours
increase of HbA1C during the six-week period (diabetic db/db mice [4]): 109%
insulin levels in OGTT six days after dosing [5]: significantly increased
blood glucose levels in OGTT six days after dosing ([5]; 2.0 mg/g glucose): significantly reduced
glucose excursion during an oral glucose tolerance test after 40 days of dosing (diabetic db/db mice [6]): effective in lowering the glucose excursion

Compound: exendin-4 peptide: exendin-4 peptide, comparator in insulin secretion assay
insulin secretion in RINm cells (RINm cells): stimulates insulin release

Compound: GLP-1 (7-36) amide: GLP-1 (7-36) amide
time action [7]: about 50 minutes

Compound: GLP-1: Glucagon like peptide-1 given as six-week infusion in the clinic (HAEGTFTSDVSSYLEGQAAKEFIAWLVKGRG)
fasting and 8-hour mean plasma glucose levels ([8]; six-week infusion): lowered
β-cell function [8]: improvement in β-cell function

Compound: CN=C(N)NC(=O)Nc1c(C)cccc1C [lidamidine, reference compound]
time in which 50% of the gastric contents were emptied (normal dogs): 30.60 ± 6.47 min
